Results as given in US20250188417A1, “CARDIOMYOCYTES AND COMPOSITIONS AND METHODS FOR PRODUCING THE SAME” (President and Fellows of Harvard College, priority 2021, published 2025).
Entries after “also recorded” stand apart in the source; their conditions may differ.

Legend:
iPSC-CMs [1] = test: Flow cytometry of marker expression and live cells in iPSC-CMs treated in 3D culture; type: cell-based, human; conditions: for percentage of TNNT2+ iPSC-CMs expressing Kir2.1: FIG. 2E / FIG. 3A; for mean fluorescence intensity (MFI) of Kir2.1: FIG. 2F / FIG. 3B; for % of p53+ TNNT2+ iPSC-CMs: FIG. 2G / FIG. 3C; for mean fluorescence intensity of p53: FIG. 3D; for expression of Kir2.1 / expression of p53: treatment of iPSC-CMs in 3D culture
Experimental: (§1) The UCSD142i-86-1 cell line was used to generate preliminary data. UCSD142i-86-1 cells were differentiated into cardiomyocytes according to previously published protocols (9) adapted to three-dimensional culture in the laboratory. Two days after onset of beating (around day 9 of differentiation), cardiomyocytes were treated with vehicle (DMSO) or different concentrations of quercetin for different time periods. Cells were harvested for qPCR, western, or flow cytometry at different time points.

BJRiPS-CMs = test: Western blot and densitometry (MDM2, p53, TNNI3) and cell cycle analysis of BJRiPS-derived cardiomyocytes; type: cell-based, human
Experimental: FIG. 6A provides a schematic showing proposed mechanism of cardiomyocyte maturation. T3, triiodothyronine. […] FIG. 6C provides representative Western blot of MDM2, p53, TNNI3, and β-tubulin from BJRiPS-derived cardiomyocyte lysates treated with control (DMSO), nutlin-3a Å˜24 hours (10 μmol/L), Torin1 Å˜7 days (200 nmol/L), or Torin1 Å˜7 days (200 nmol/L)+nutlin-3a (10 μmol/L) for 24 hours beginning ≈2 days after onset of beating (nutlin-3a was only administered during the first 24 hours of Torin1 treatment). Cells harvested on final day of treatment, BJRiPS-CMs. […] DMSO indicates dimethylsulfoxide; mTOR, mechanistic target of rapamycin; and TNNT2+ BJRiPS-CMs, troponin T2, cardiac type-positive BJ fibroblast-derived RNA-induced pluripotent stem cell-derived cardiomyocytes.
FIG. 14A provides representative western blot of p53, phospho-53, p21 (CDKN1a), GATA4, NKX2.5, and β-tubulin from Gibco iPS-CM lysates treated with 0 (DMSO), 10, 50, or 200 nM Torin1 for 7 days starting ˜2 days after onset of beating. Cells harvested on final day of treatment. FIG. 14B provides cell cycle analysis showing percentage of TNNT2+ BJRiPS-CMs in G0, G1 or S/G2/M phases after treatment with vehicle (DMSO, dimethylsulfoxide), pifithrin-α (10 μM) for 1 week, Torin1 (200 nM) for 7 days or simultaneous treatment with pifithrin-α (10 μM) and Torin1 (200 nM) for 7 days starting ˜2 days after onset of beating. n=3 per group, *p<0.05, **p<0.01, ***p<0.001, ****p<0.0001 by two-way ANOVA with Tukey's multiple comparisons test. FIG. 14C provides representative western blot of p53, TNNI3, p21, and β-tubulin from BJRiPS-derived cardiomyocyte lysates treated with control (DMSO), Torin1 (200 nM), pifithrin-α (10 PM) or Torin1 (200 nM)+pifithrin-α (10 μM) for 7 days beginning ˜2 days after onset of beating. Cells harvested on final day of treatment.

cardiomyocytes = test: Flow cytometry in 2D culture (TNNT2, MitoTracker Red CMXRos, superoxide signal); type: cell-based, human; conditions: FACS, FIG. 8
From the text: FACS N=3/group, MitoTracker Red CMXRos flow cytometry, 1-way ANOVA with Tukey's multiple comparisons test.
Reactive oxygen species may regulate cardiomyocyte maturation. FACS, n=3/group.

iPSC-CMs [2] = test: qPCR of PPARGC1a mRNA in iPSC-CMs treated in 3D culture; type: cell-based, human; conditions: 200 μM for 3 days, FIG. 5
Experimental: as §1

senescent tumor cells = conditions: literature reference; cited from earlier work

| Compound | percentage of TNNT2+ iPSC-CMs (iPSC-CMs [1]; 3D culture, flow cytometry, FIG. 2A) | mean fluorescence intensity (MFI) of TNNT2 (iPSC-CMs [1]; 3D culture, flow cytometry, FIG. 2B) | % of TNNI3+ (iPSC-CMs [1]; 3D culture, flow cytometry, FIG. 2C) | mean fluorescence intensity of TNNI3 (iPSC-CMs [1]; 3D culture, flow cytometry, FIG. 2D) | percentage of TNNT2+ iPSC-CMs expressing Kir2.1 (iPSC-CMs [1]; 3D culture, flow cytometry) | mean fluorescence intensity (MFI) of Kir2.1 (iPSC-CMs [1]; 3D culture, flow cytometry) | % of p53+ TNNT2+ iPSC-CMs (iPSC-CMs [1]; 3D culture, flow cytometry) | mean fluorescence intensity of p53 (iPSC-CMs [1]; 3D culture, flow cytometry) | expression of Kir2.1 (iPSC-CMs [1]) | expression of p53 (iPSC-CMs [1]) | TNNI3 expression, effect together with Torin1 (BJRiPS-CMs; nutlin-3a 10 μmol/L during first 24 hours of Torin1 200 nmol/L for 7 days) | p53 (Western analysis) (BJRiPS-CMs; nutlin-3a 10 μmol/L for 24 hours) | TNNI3 expression (BJRiPS-CMs; nutlin-3a 10 μmol/L for 24 hours, about 2 days after onset of beating, Western densitometry) | mean fluorescence intensity of superoxide signal (cardiomyocytes) | percentage of live cells (iPSC-CMs [1]; 200 μM, 2 or 5 day treatment, 3D culture, flow cytometry, FIG. 4A) | iPSC-CM maturation (iPSC-CMs [1]; 3D suspension culture, preliminary data) | percentage of TNNT2+ cells out of live cells (cardiomyocytes) (iPSC-CMs [1]; 2 day treatment at 20 or 200 μM, 3D culture, flow cytometry, FIG. 4B) | mRNA expression of PPARGC1a (iPSC-CMs [2]) | apoptosis in senescent tumor cells (senescent tumor cells) |
| --- | --- | --- | --- | --- | --- | --- | --- | --- | --- | --- | --- | --- | --- | --- | --- | --- | --- | --- | --- |
| COc1ccc(C2=N[C@@H](c3ccc(Cl)cc3)[C@@H](c3ccc(Cl)cc3)N2C(=O)N2CCNC(=O)C2)c(OC(C)C)c1 [nutlin-3a] | increases | increases | increases | increases | increases | increases | increases | increases | increases | increases | synergistic effect | upregulation | enhances | increases |  |  |  |  |  |
| O=c1c(O)c(-c2ccc(O)c(O)c2)oc2cc(O)cc(O)c12 [quercetin] |  |  |  |  | increases | increases | increases | increases | increases | increases |  |  |  |  | decreases | can enhance | increases | increases; also recorded: significantly increased | can induce apoptosis |
